The values below are quoted from earlier work in patent publication US20200093158A1, “COMPOSITIONS AND COMBINATIONS FOR USE AS FOOD SUPPLEMENTS FOR ANIMALS” (OmniGen Research, LLC, priority 2014, published 2020).

SMILES strings stand for the structures.

Series [1] deals with turbot (Scophthalmus maximus) juveniles.
The next series concerns larvae of common carp. The following applies: 1.76 parts per million of NH3, after 24 hours.
The conditions of series [2]: 71.5 parts per million in diet for 8 weeks; 72 hours ammonia at 0.02, 0.2, 2 ppm (not at 20 ppm); vs control shrimp.

Broadly, the mortality is the percentage killed. Consider `N` [NH3, ammonia], for which the physiological disturbances result in series [1] (adapted small turbot, up to 0.4-0.5 parts per million) is “no major physiological disturbances”. In addition, the mortalities result in series [1] (turbot juveniles, 4-6 weeks, up to 0.4 parts per million unionized ammonia, 16.5-17.5° C., pH 7.92-8.03) is “no mortalities”. Further, the mortality in the series on larvae of common carp was 50%.

Regarding `CC1=C(/C=C/C(C)=C/C=C/C(C)=C/C=C/C=C(C)/C=C/C=C(C)/C=C/C2=C(C)C(=O)[C@@H](O)CC2(C)C)C(C)(C)C[C@H](O)C1=O` [astaxanthin], the “survival rates under ammonia exposure” value in series [2] is given as “higher”.
